Laboratory results: article PMC6121244, “Differences in Functional Expression of Connexin43 and NaV1.5 by Pan- and Class-Selective Histone Deacetylase Inhibition in Heart” (International Journal of Molecular Sciences, 2018)
Read-outs that look alike come from different tables or passages of the source.

What was measured:
[1] = test system: Cx43 protein expression in NMVMs; experiment: Western blot of Cx43 protein level; format: cell-based, mouse; settings: 24 h
[2] = test system: IK,to and IK,ss in NMVMs; experiment: Transient and steady state outward K+ currents, whole cell patch clamp
[3] = test system: HDAC8; parameters: method as in PMID 17868033; settings: >100,000 = incomplete inhibition at 100 μM; cited from earlier work
[4] = test system: ventricular gap junction conductance (gj), Cx43-mediated; experiment: Gap junction conductance (gj), dual whole cell patch clamp on NMVM cell pairs; format: cell-based, mouse
Description: Final DMSO levels were <0.005% (vol/vol).
Gap junction currents (Ij) were recorded in the dual whole cell configuration according to previously published methods. Upon establishing a dual whole cell patch, Ij was recorded using a 30 s, 20 mV trans-junctional voltage protocol. All dual whole cell current recordings were low-pass filtered at 500 Hz and digitized at 2 KHz using pClamp 8.2 and graphical analysis performed using Origin 7.5 or 8.6 software as previously described.

[5] = test system: late INa in NMVMs; experiment: Late INa, whole cell patch clamp; format: cell-based, mouse
Text: Increases in late or persistent INa have been linked to cardiac arrhythmias and heart failure. […] . Subsequently, we modified a voltage clamp ramp protocol designed to generate late INa I–V relationships. […] .

[6] = test system: NaV1.5 protein expression in NMVMs; experiment: Western blot of NaV1.5 protein level; format: cell-based, mouse; settings: 24 h
[7] = test system: total HDAC activity in cultured neonatal mouse ventricular cardiomyocytes; experiment: Fluor de Lys total HDAC activity assay in cultured ventricular cardiomyocytes; format: cell-based; settings: NMVMs, 18–24 h treatment; for C1, decay constant of first exponential component of HDAC inhibition curve / C2, decay constant of second exponential component of HDAC inhibition curve: double exponential fit
Description: Neonatal mice born from an inbred C57BL/6 mouse colony were anesthetized using isoflurane and the hearts were excised in accordance with procedures approved by the SUNY Upstate Medical University Institutional Animal Care and Use Committee (IACUC) # 263 on 15 March 2017. The excised hearts were separated into atria and ventricles and exposed to collagenase solution for digestion. The dissociated cells were pre-plated for 30 min to reduce fibroblast content by differential adhesion and the supernatant was collected, centrifuged and re-suspended in 1 mL/heart of M199/10% FBS culture media. The primary cells were plated into 96-well plates for HDAC activity assays, 35 mm culture dishes for patch clamp electrophysiology, or 60 mm culture dishes and homogenized after 3 days for Western blots.
Aliquots of 2 × 10^5 ventricular myocytes per well (96-well plate) were grown in 200 μL of 200 μM bromodeoxyuridine (BrDU)/M199, exchanged daily. Cell densities were counted with a hemocytometer and seeded into the wells. Wells were incubated with 2000 pmoles of the acetylated Fluor-de-Lys® substrate for 8 h during HDAC inhibition. […]

[8] = test system: HDAC3; parameters: method as in PMID 17868033; settings: >100,000 = incomplete inhibition at 100 μM; cited from earlier work
[9] = test system: HDAC6; settings: cited from earlier work
[10] = test system: cardiac sodium current (INa) in NMVMs, primarily NaV1.5; experiment: Cardiac sodium current (INa) density and Vm-dependent gNa activation/inactivation, whole cell patch clamp; format: cell-based, mouse; settings: 18–24 h
Text: Since both the activation and inactivation of INa are dependent on the membrane potential (Vm), we calculated the normalized Na^+ conductance (gNa) by dividing the average peak INa by the difference between Vm and the reversal potential (Erev) for INa, and then divided the gNa value for each Vm by the maximum gNa value for each experiment. The gNa–Vm curves were fit with a Boltzmann function gNa= gNamax+ (gNa− gNamax)/[1+exp((Vm− V1/2)/dVm)] using Origin 8.6. […] Final DMSO levels were <0.005% (vol/vol).

[11] = test system: HDAC4; parameters: method as in PMID 17868033; settings: >100,000 = incomplete inhibition at 100 μM; cited from earlier work
[12] = test system: cardiac sodium current (INa) in NMVMs, primarily NaV1.5; parameters: method as in PMID 27638876; settings: previous experiments ref 13; cited from earlier work
[13] = test system: total HDAC activity in cultured neonatal mouse ventricular cardiomyocytes; settings: NMVMs, cited from earlier work; for C1, decay constant of first exponential component of HDAC inhibition curve / C2, decay constant of second exponential component of HDAC inhibition curve: double exponential fit
[14] = target: HDAC2; parameters: method as in PMID 20139990; settings: cited from earlier work
[15] = target: HDAC5; parameters: method as in PMID 20139990; settings: cited from earlier work
[16] = target: HDAC7; parameters: method as in PMID 20139990; settings: cited from earlier work
[17] = target: HDAC1; parameters: method as in PMID 20139990; settings: cited from earlier work
[18] = test system: HeLa nuclear extract HDAC activity; parameters: method as in PMID 17455259; settings: incomplete inhibition; cited from earlier work
[19] = test system: acetyl-α-tubulin and acetyl-histone 3; experiment: Western blot of acetylation markers; settings: 1 μM MS-275, 24 h
[20] = test system: HDAC8; parameters: method as in PMID 17455259; settings: cited from earlier work
[21] = test system: HDAC9; parameters: method as in PMID 17868033; settings: >100,000 = incomplete inhibition at 100 μM; cited from earlier work
[22] = test system: HDAC1; settings: read-out: IC50 HDAC1, cited from earlier work
[23] = test system: HDAC1
[24] = test system: HDAC1; parameters: method as in PMID 17868033; settings: >100,000 = incomplete inhibition at 100 μM; cited from earlier work
[25] = test system: HDAC7; parameters: method as in PMID 17868033; settings: >100,000 = incomplete inhibition at 100 μM; cited from earlier work
[26] = 25, 100, 500, 2500 nM panobinostat, p < 0.05
[27] = read-out: IC50(2), low affinity site, total HDAC activity, IC50 = 0.693·C2
[28] = adjusted values from published data ref 14
[29] = adjusted values from published data ref 13

Structure (SMILES): Cc1[nH]c2ccccc2c1CCNCc1ccc(/C=C/C(=O)NO)cc1 [Panobinostat, panobinostat]
- Cx43 protein level [1, 26]: concentration-dependent decrease
- transient outward and steady state K+ currents ([2]; 100 nM, 24 h): No signifi cant changes
- amplitude of exponential fit of decline in gj ([4]; 18–24 h, exponential fit): 48.5
- effect on ventricular gj ([4]; 100, 500 or 1000 nM panobinostat, 18–24 h): significant dose-dependent decrease
- effect on late INa ([5]; 100 or 500 nM panobinostat overnight, average current 100 to 150 msec): no difference in late INa
- NaV1.5 protein level [6, 26]: concentration-dependent decrease
- C1, decay constant of first exponential component of HDAC inhibition curve [7]: 57.4 ± 22.2 nM
- C2, decay constant of second exponential component of HDAC inhibition curve [7]: 2959 ± 838 nM
- IC50 ([7]; IC50 = 0.693·C1, listed as LBH589, read-out: IC50(1), high affinity site, total HDAC activity): 0.0398 ± 0.0154 µM
- IC50 ([7]; IC50 = 0.693·C1, read-out: IC50(1), high affinity site, total HDAC activity): ~0.04 µM
- IC50 [7, 27]: ~2 µM
- IC50 ([7]; read-out: IC50(2), low affinity site, total HDAC activity, IC50 = 0.693·C2, listed as LBH589): 2.05 ± 0.581 µM
- effect on peak cardiac Na+ current density ([10]; 100 or 500 nM panobinostat): decreased the cardiac sodium current density in a dose-dependent manner

Structure (SMILES): C/C=C1\NC(=O)[C@H]2CSSCC/C=C/[C@H](CC(=O)N[C@H](C(C)C)C(=O)N2)OC(=O)[C@H](C(C)C)NC1=O [FK228, romidepsin]
- positive shift in half activation voltage (V½) [12]: +2 to +8 mV
- shift in Vm-dependent gNa inactivation curve [12]: no shift
- C1, decay constant of first exponential component of HDAC inhibition curve [13, 28]: 7.9 ± 0.9 nM
- C2, decay constant of second exponential component of HDAC inhibition curve [13, 28]: 2524 ± 678 nM
- IC50 ([13]; adjusted values from published data ref 14, read-out: IC50(1), high affinity site, total HDAC activity): 0.0055 ± 0.0006 µM
- IC50 ([13]; adjusted values from published data ref 14, read-out: IC50(2), low affinity site, total HDAC activity): 1.75 ± 0.47 µM

Structure (SMILES): CCCC(=O)[O-].[Na+] [NaB, sodium butyrate]
- increase in gj ([4]; 5 mM NaB alone): 26%
- effect on gj ([4]; increasing concentrations of NaB): non-significantly increased gj in a concentration-dependent manner
- activity against the class IIb HDAC6 [9]: no activity

Structure (SMILES): O=C(CCCCCCC(=O)Nc1ccc([C@H]2O[C@@H](CSc3nc(-c4ccccc4)c(-c4ccccc4)o3)C[C@@H](c3ccc(CO)cc3)O2)cc1)NO [Tubacin, tubacin]
- Ki [14]: 0.042 ± 0.0035 µM
- increase in gj ([4]; 10 μM tubacin alone): 9%
- effect on gj ([4]; 20 μM tubacin, highest tested dose): slight decrease
- effect on gj ([4]; increasing concentrations of tubacin): non-significant increase and then decrease in gj with increasing concentration
- Ki [15]: 1.5 ± 0.25 µM
- Ki [16]: 8.5 ± 1.5 µM
- Ki [17]: 0.028 ± 0.004 µM

Structure (SMILES): O=C(CCCCCCC(=O)Nc1ccccc1)NO [VOR, suberoylanilide hydroxamic acid]
- C1, decay constant of first exponential component of HDAC inhibition curve [13, 29]: 140 ± 30 nM
- C2, decay constant of second exponential component of HDAC inhibition curve [13, 29]: 1086 ± 312 nM

Structure (SMILES): CC(/C=C/C(=O)NO)=C\[C@@H](C)C(=O)c1ccc(N(C)C)cc1 [TSA, Trichostatin A]
- positive shift in half activation voltage (V½) [12]: +2 to +8 mV
- shift in Vm-dependent gNa inactivation curve [12]: no shift
- C1, decay constant of first exponential component of HDAC inhibition curve [13, 29]: 10.6 ± 1.3 nM
- C2, decay constant of second exponential component of HDAC inhibition curve [13, 29]: 258 ± 76 nM
- IC50 ([13]; adjusted values from published data ref 13, read-out: IC50(1), high affinity site, total HDAC activity): 0.0073 ± 0.0009 µM
- IC50 ([13]; adjusted values from published data ref 13, read-out: IC50(2), low affinity site, total HDAC activity): 0.179 ± 0.053 µM

Structure (SMILES): Nc1ccccc1NC(=O)c1ccc(CNC(=O)OCc2cccnc2)cc1 [Entinostat, entinostat]
- Cx43 protein level ([1]; 1 μM entinostat): no significant changes
- IC50 [18]: 11 µM
- transient outward and steady state K+ currents ([2]; 1 μM MS275, 24 h): no si gni ficant chang es
- Ac-H3 and Ac-α-tubulin signals [19]: only increased the Ac-H3 signal
- effect on ventricular gj ([4]; 5 μM entinostat, 18–24 h): significant reduction in gj
- effect on late INa current density ([5]; 1 μM entinostat 18–24 h, Vm ramp): no increase in late INa
- NaV1.5 protein level ([6]; 1 μM entinostat): no significant changes
- C1, decay constant of first exponential component of HDAC inhibition curve [7]: 629 ± 166 nM
- C2, decay constant of second exponential component of HDAC inhibition curve [7]: 12,926 ± 3655 nM
- IC50 ([7]; read-out: IC50(1), high affinity site, total HDAC activity, IC50 = 0.693·C1): 0.436 ± 0.115 µM
- IC50 [7, 27]: 8.96 ± 2.53 µM
- effect on peak Na+ current density ([10]; 1 μM entinostat): no significant effect
- preferential inhibition of HDAC1 over other HDACs [23]: 10–100 fold

Structure (SMILES): CCCC(CCC)C(=O)O [VPA, valproic acid]
- IC50 [24]: 1580 µM
- IC50 [3]: 7440 µM
- IC50 [21]: > 100 µM
- IC50 [8]: 3070 µM
- IC50 [25]: > 100 µM
